Results as given in publication PMC5947712, “High‐Throughput Kinetic Analysis for Target‐Directed Covalent Ligand Discovery” (Angewandte Chemie (International Ed. in English), 2018).

Target: Cdk2(WT) (Homo sapiens, UniProt P24941)
Experiment: In vitro kinase assay (NADH-coupled) of ligand-conjugated pCdk2 with Cyclin A2
Format: biochemical
Design: GST (N, cleaved yes); made in house; host or cells: E. coli Tuner(DE3)
Settings: for Kinase activity ± s.e.m relative to Cdk2(WT): n=3
Method: Hs!Cyclin!A2!F!5’![…]!
Hs!Cyclin!A2!R!5’![…]!
Sc!CAK1!R!5’!GAATTCttatgggcttttctaattcttgcaag!
GSTBCdk2" and" GSTBcyclin" A2:! Harvested! cells! were! resuspended! in! 50! mM! HEPES! buffer! (pH7.5)! containing! 150! mM! NaCl,!
10!mM!MgCl2,!2!mM!dithiothreitol!(DTT),!0.5!mg!mLR1!lysozyme,!and!0.01%!Triton!XR100!at!4!˚C!and!incubated!for!30!minutes.!
After! sonication! and! centrifugation! (40! min,! 16000! g),! the! supernatant! was! incubated! for! 1! h! with! glutathioneRSepharose!
beads,! washed! with! lysis! buffer! and! the! desired! protein! eluted! with! 10! mM! GSH! (100! mM! Tris,! pH! 8).! After! incubation! the! deR
sired! protein! was! cleaved! from! the! GST! tag! with! PreScission! protease! (100:1)! at! 4 °C! for! 4! hours,! the! cleaved! GST! tag! was!
removed! with! glutathioneRSepharose! beads.! Cdk2! was! concentrated! and! then! loaded! onto! a! Superdex! 75! (16/60)! column,!
eluting! with! 100! mM! phosphate! buffer! containing! 50! mM! DTT.! Purified! Cdk2! was! concentrated! to! 10! mg! mLR1!and! stored! at!–
80! ˚C.! Cyclin! A2! was! purified! by! glutathioneRSepharose! affinity! as! described! above! with! the! following! amendments:! 100! mM!
MgCl2!was! added! after! GST! cleavage! to! minimise! protein! aggregation! and! gel! filtration! was! performed! with! 50! mM! HEPES!
buffer! (pH! 7.5)! containing! 150! mM! NaCl,! 100! mM! MgCl2,! 2! mM! DTT.! ! GSTRCAK1! was! also! purified! using! the! glutathioneR
Sepharose!affinity!workflow,!however!no!protease!or!gel!filtration!steps!were!performed!and!the!enzyme!was!used!crude.!
His6BCdk2:! Cell! lysis! was! performed! as! above! with! the! addition! of! 30! mM! imidiazole! to! the! lysis! buffer.! Following! sonication!
the! supernatant! was! incubated! for! 1! hour! with!nickel! sulfate! charged! NTA! agarose! beads,! washed! with! lysis!buffer! suppleR
mented!with!50!mM!imidiazole!and!then!His6RCdk2!eluted!with!lysis!buffer!containing!500!mM!imidiazole.!After!dialysis!against!
100! mM! phosphate! buffer! (pH! 8)! containing! 1! mM! DTT,! His6RCdk2! was! concentrated! and! loaded! onto! a! Superdex! 75! (16/60)!
column,!eluting!with!100!mM!phosphate!buffer!(pH!8)!without!reducing!agent."
I., Acrylamide, labelling, of, Cdk2, for, crystallography, TdCD, kinase, assays, and, intact%
protein,mass,spectrometry,
Cdk2! (10! µM)! was! reacted! with! acrylamide! ligands! at! 500! µM! in! 100! mM! phosphate! buffer! (pH! 8)! containing! 1%! DMSO,! until!
labelling! reached! completion! (as! monitored! by! fluorescence! quench! assay! and/or! intact! protein! mass! spectrometry).! Excess!
ligand! was! subsequently! removed! by! serial! dilution! and! concentration! (×5)! into! the!appropriate! buffer! using! Amicon! UltraR0.5!
centrifugal!filter!devices!(MW!cutRoff!=!10!kDa).!
J.,Intact%protein,mass,spectrometry, […]

[1] = Cdk2(WT) completely modified with compound

SMILES	inhibition of kinase activity [1]	Kinase activity ± s.e.m relative to Cdk2(WT) [1] [%]	inhibition of kinase activity (in words) (Cdk2(WT) modified with compound)
C=CC(=O)N1CCN(C(=O)OC(C)(C)C)c2ccccc21 [Acrylamide 1]	about 83%	16.8±3.1	–
C=CC(=O)N1CCN(C(=O)OC)c2ccccc21 [Acrylamide 2]	–	96.6±5.6	no significant inhibition
